pKd: −log10 of the molar value.
Tests used:
[1] = Radiotracer production data: stability of the product to in vivo experiments; type: physicochemical
PD-L1 = biological target: T1, PD-L1 (Homo sapiens, UniProt Q9NZQ7); experiment: Real-time radioligand binding (LigandTracer) on PC3 PD-L1 cells; conditions: for pKd: real-time binding
T1 construct: expressed in transfected cells; host or cells: PC3 cells (human prostate carcinoma), stably transduced
Experimental: Real-time radioligand binding using the ligand tracer platform was performed, similar to our previously reported tracer candidates. As we aimed at reducing the albumin binding of the herein presented compounds, we performed measurements in the presence or absence of a mouse physiological concentration of BSA (2.5 g/dL).
For real-time binding to assess kinetics (association rate constant ka and dissociation rate constant kd) and dissociation constant (KD), LigandTracer (Yellow, Ridgeview Instruments AB, Sweden) was employed. Approximately 1.2 × 10^6 cells (in 3 mL medium) were seeded to one side of a Petri dish (Nunc) 1 day prior to experiments as described before.[45] Binding was then performed at room temperature (using CO2-independent medium, Gibco #18045088, Thermo Fisher Germany) with or without BSA (2.5%). First, association was determined by incubation with two concentrations (10 and 40 nM, 90 min each) of the ^64Cu-labeled PD-L1 ligands. Dissociation was then assessed by replacement with fresh medium for at least 2 h. Data were acquired in decay-corrected counts per second (CPS), and binding data were then evaluated using TraceDrawer (1.9.2, Ridgeview Instruments AB, Sweden). Traces were inspected for spikes and irregularities and then normalized to their own baseline (=0%) and highest value (=100%). Data were then fitted using a one-to-one interaction, accounting for the bulk effect.

PC3 mock tumor = experiment: Small-animal PET, uptake in mock tumor; conditions: for SUVmax PC3 mock tumor: tracer only; for SUVmax PC3 mock tumor +block: blocker i.v. before tracer: Cu-1 100 nmol 1, Cu-2 100 nmol 2, Cu-3 1000 nmol 4, Cu-4 500 nmol 4, Cu-6 250 nmol 1 (~5 min prior), Cu-5 100 nmol 5 (~30 min prior); for blocking effect on SUVmax in the mock tumor: 24–25 h p.i., blocker: Cu-1, Cu-2 100 nmol unlabeled compound, Cu-3 1000 nmol 4
Experimental: (§1) Changes are reported as % change of the SUVmax of the PD-L1 expressing over the respective value of the mock tumor. Similarly, the effect of blocking is reported as % change of the SUVmax of the animal injected with cold compound over that of the animal that received tracer only.
(§2) Animal experiments were performed in accordance with the guidelines of the German Regulations for Animal Welfare, approved by the Saxonian Ethical Committee for Animal Experiments (reference number DD24.1-5131/449/49). Male athymic NMRI-nude mice (Rj: NMRI-Foxn1^nu/nu, Janvier Laboratories, Le Genest-Saint-Isle, France) between 8 and 22 weeks of age were used. Under general anesthesia, [∼10% desflurane (Baxter, Deerfield, IL, USA) in 30 vol % oxygen + air] and warming, the animals were subcutaneously injected with 3–5 × 10^6 PC3-PD-L1 and PC3-mock cells [in 50 μL PBS +50 μL Matrigel (Corning, Glendale, USA)] into the right and left thigh, respectively. Tumor growth was monitored three times a week by caliper measurements, and mice with tumor sizes above 7 mm were included in the experiments.
(§3) For PET studies, general anesthesia was induced as described above. PET and X-ray computed tomography (CT) were performed in a dedicated small animal nanoScan PET/CT scanner, with four animals imaged simultaneously (Mediso, Budapest, Hungary). CT images were employed for attenuation correction and anatomical referencing. Animals received three individual scans corresponding to 0–2 h (dynamic) and 4.5 and 24 h (static) postinjection.
(§4) PD-L1 radiotracer candidates (in 300 μL sterile 0.9% NaCl/HEPES buffer, pH 6–7, between 7 and 12 MBq, molar activities > 12 GBq/μmol) were delivered over 30 s i.v. (lateral tail vein) and PET acquisition started simultaneously. For blocking condition, a defined quantity of compound (the same unlabeled compound, one from the same series or BMS-1166) was diluted in sterile saline and injected i.v. approximately 5 min prior to the radiotracer. Animals not subjected to blocking were injected with vehicle at the same time.
(§5) Three-dimensional list mode data were binned using the 400–600 keV energy window and sorted into 36 time frames (15 × 10 s, 5 × 30 s, 5 × 60 s, 4 × 300 s, 3 × 600 s, 4 × 900 s). Time frames were reconstructed using the Tera-TomoTM 3D algorithm applying a voxel size of 0.4 mm and corrections for decay, scatter, and attenuation.
(§6) Three-dimensional volumes of interest were delineated applying fixed thresholding at 35% of the measured maximum intensity. Standardized uptake values (SUV = [MBq detected activity/mL tissue]/[MBq injected activity/g body weight], […]) were determined in selected volumes of interest, among these PD-L1 and mock tumors.
(§7) 14. In vivo: PET- SUV data
(§8) Standardized uptake values (SUVmax)
(§9) Supplementary table 1: In vivo standardized uptake values (SUVmax ± standard deviation) of 64Cu-labeled third series compounds [64Cu]Cu-1-6 at 1.5 (1–2), 4.5 (4–5) and 24.5 (24–25) hours
(§10) post injection (p.i.). Compounds used for blocking are described for each tracer and were intravenously injected in sterile saline at stated time before the radiotracer. Animals designated for
(§11) tracer-only received matched type and volume of vehicle at the same time.

[2] = tested on: PC3 PD-L1-overexpressing tumor; experiment: Small-animal PET, uptake in PD-L1-overexpressing tumor; conditions: for SUVmax PC3 PD-L1 overexpressing tumor: tracer only; for SUVmax PC3 PD-L1 overexpressing tumor +block: blocker i.v. before tracer: Cu-1 100 nmol 1, Cu-2 100 nmol 2, Cu-3 1000 nmol 4, Cu-4 500 nmol 4, Cu-6 250 nmol 1 (~5 min prior), Cu-5 100 nmol 5 (~30 min prior)
Experimental: as §1, §2, §3, §4, §5, §6, §7, §8, §9, §10, §11

[3] = Proteolytic stability in human serum, radio-HPLC; type: in vitro ADME; conditions: 37 °C, 1 h
Experimental: Potential degradation of the ^64Cu-labeled radiotracers by proteolysis was investigated by incubation in human serum at 37 °C for up to 48 h. At three different time points (1, 24, and 48 h), a sample was withdrawn, and serum proteins were precipitated. The radio-HPLC chromatograms of all ^64Cu-labeled radiotracers (Figure S111A–D, system D) show a major peak at ∼6.4–6.7 min indicating the radiotracers. After 1 h, the radiotracers [^64Cu]Cu-3–6 are 94.1, 98.3, 94.0, and 96.3% intact, respectively.
Similar to PBS stability studies, the mixture containing the radiolabeled compound was diluted 1:10 with human serum. The solution was incubated at 37 °C with shaking at 300 rpm. At each time point (1, 24, and 48 h), an aliquot was withdrawn and added to a double amount of “supersol” (water containing 20% v/v EtOH, 5% v/v 5 mM aqueous EDTA, 0.5% v/v Triton X-100, 0.1% m/v saponin, 0.05% v/v 0.5 mM aqueous o-phenanthroline) to precipitate serum proteins. The suspension was cooled on ice for 5 min and then centrifugated for 5 min at 12,000g. A small amount of the supernatant was analyzed by radio-HPLC (PerkinElmer, Massachusetts, United States system D, Supporting Information). Evaluation and graphical plotting were performed with OriginPro 9.0.

[4] = medium only (no BSA), n = 2, mean ± S.D.
[5] = medium only (no BSA), n = 2, mean ± S.D., room temperature

T1 sequence (Q9NZQ7 19-290): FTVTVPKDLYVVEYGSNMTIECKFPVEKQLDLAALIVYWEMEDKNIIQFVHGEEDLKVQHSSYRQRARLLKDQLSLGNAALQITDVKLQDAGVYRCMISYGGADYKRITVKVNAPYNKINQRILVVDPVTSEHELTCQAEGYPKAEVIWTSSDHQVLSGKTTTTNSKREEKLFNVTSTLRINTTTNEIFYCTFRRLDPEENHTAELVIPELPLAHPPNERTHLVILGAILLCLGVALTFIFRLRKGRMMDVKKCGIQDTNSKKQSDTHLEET

SMILES	Stability of the product to in vivo experiments [1] [%]	Bmax [normalized (%)] (PD-L1; medium + 2.5% BSA, n = 1) [%]	ka (association rate constant) (PD-L1; medium + 2.5% BSA, n = 1) [M/s]	Bmax [normalized (%)] (PD-L1; [4]) [%]	ka (association rate constant) (PD-L1; [5])	pKd (PD-L1; medium + 2.5% BSA, n = 1)	pKd (PD-L1; [4])	SUVmax PC3 mock tumor (PC3 mock tumor; 1.5 (1–2) hours p.i.)	SUVmax PC3 mock tumor +block (PC3 mock tumor; 1.5 (1–2) hours p.i.)	SUVmax PC3 mock tumor (PC3 mock tumor; 4.5 (4–5) hours p.i.)	SUVmax PC3 mock tumor +block (PC3 mock tumor; 4.5 (4–5) hours p.i.)	blocking effect on SUVmax in the mock tumor (PC3 mock tumor) [%]	SUVmax PC3 mock tumor (PC3 mock tumor; 24.5 (24–25) hours p.i.)	SUVmax PC3 mock tumor +block (PC3 mock tumor; 24.5 (24–25) hours p.i.)	SUVmax PC3 PD-L1 overexpressing tumor ([2]; 1.5 (1–2) hours p.i.)	SUVmax PC3 PD-L1 overexpressing tumor +block ([2]; 1.5 (1–2) hours p.i.)	SUVmax PC3 PD-L1 overexpressing tumor ([2]; 4.5 (4–5) hours p.i.)	SUVmax PC3 PD-L1 overexpressing tumor +block ([2]; 4.5 (4–5) hours p.i.)	SUVmax PC3 PD-L1 overexpressing tumor ([2]; 24.5 (24–25) hours p.i.)	SUVmax PC3 PD-L1 overexpressing tumor +block ([2]; 24.5 (24–25) hours p.i.)	other results
Cc1c(COc2cc(OCc3cncc(C#N)c3)c(CN[C@@H](CS(=O)(=O)O)C(=O)NCCS(=O)(=O)O)cc2Cl)cccc1-c1cccc(OCc2cn(CCCN3CCN(C(=O)[C@H](CS(=O)(=O)O)NC(=O)CC[C@H](C(=O)O)N4CCN(CC(=O)O)CCN(CC(=O)O)CC4)CC3)nn2)c1C.[64Cu+2] [[^64Cu]Cu-1]	> 99	76.2	1410	186 ± 40.2	(2.85 ± 0.07) × 10^3 (M s)^−1	6.92	7.22	1.0	1.4	0.8	1.0	−41 to −54	1.2	0.7	1–1.5	1.3	1.1	1.0	1.4	1.1	fold change of real-time binding affinity in presence vs absence of BSA (PD-L1; in either direction): ≤ 2 fold; SUVmax PC3 PD-L1 overexpressing tumor ([2]; 1.5 (1–2) hours p.i., listed as [64Cu]Cu-1): 1.5
Cc1c(COc2cc(OCc3cncc(S(C)(=O)=O)c3)c(CN[C@@H](CS(=O)(=O)O)C(=O)NCCS(=O)(=O)O)cc2Cl)cccc1-c1cccc(OCc2cn(CCCN3CCN(C(=O)[C@H](CS(=O)(=O)O)NC(=O)CC[C@H](C(=O)O)N4CCN(CC(=O)O)CCN(CC(=O)O)CC4)CC3)nn2)c1C.[64Cu+2] [[^64Cu]Cu-3]	> 99	46.6	2970	95.9 ± 6.49	(6.59 ± 0.50) × 10^3 (M s)^−1	7.27	7.68	0.85 ± 0.05	0.80 ± 0.1	0.55 ± 0.15	0.55 ± 0.05	36	0.7 ± 0.2	0.45 ± 0.05	3.5	1.0 ± 0.1	2.6 ± 0.1	0.7 ± 0.3	1.35	0.65 ± 0.05	intact radiotracer in human serum after 1 h [3]: 94.1%; blocking effect in the mock tumor (PC3 mock tumor; 1–2 and 4–5 h p.i., 1000 nmol unlabeled compound 4): negligible; blocking effect: % change of SUVmax in PD-L1 tumor vs tracer-only ([2]; 1–2 h (1.5 h) p.i., blocker: Cu-3 1000 nmol 4, Cu-4 500/1000 nmol 4, Cu-5 100 nmol 5, Cu-6 250 nmol BMS-1166): −71%; % change of SUVmax of the PD-L1 expressing tumor over the mock tumor ([2]; 1–2 h p.i.): 311%; SUVmax PC3 PD-L1 overexpressing tumor ([2]; 1.5 (1–2) hours p.i., listed as [64Cu]Cu-3): 3.5 ± 0.2; blocking effect: % change of SUVmax in PD-L1 tumor vs tracer-only ([2]; 4–5 h (4.5 h) p.i., blocker: Cu-3 1000 nmol 4, Cu-4 500/1000 nmol 4, Cu-5 100 nmol 5, Cu-6 250 nmol BMS-1166): −73%; % change of SUVmax of the PD-L1 expressing tumor over the mock tumor ([2]; 4–5 h p.i.): 372%; blocking effect: % change of SUVmax in PD-L1 tumor vs tracer-only ([2]; 24–25 h (24.5 h) p.i., blocker: Cu-1, Cu-2 100 nmol unlabeled compound, Cu-3 1000 nmol 4, Cu-4 500/1000 nmol 4, Cu-5 100 nmol 5, Cu-6 250 nmol BMS-1166): −52%; % change of SUVmax of the PD-L1 expressing tumor over the mock tumor ([2]; 24–25 h p.i.): 93%; SUVmax PC3 PD-L1 overexpressing tumor ([2]; 24.5 (24–25) hours p.i., listed as [64Cu]Cu-3): 1.35 ± 0.15; blocking effect of BMS-1166 on SUVmax / tumor uptake ([2]; any time point, Cu-3: 750 nmol BMS-1166 intraperitoneally 60 min prior, Cu-6: 250 nmol BMS-1166 5 min before): no effect
